{"source": "patent US11884631B1", "about": "(priority 2023, dated 2024)"}
{"system": "multidrug-resistant (MDR) strains of Mycobacterium tuberculosis", "assay": "microbe, parasite or virus in culture", "assay_type": "cell-based", "conditions": "read-out: MIC (μg/mL) MDR Strain", "units": {"MIC": "µg/mL"}}
{"molecule": "Cc1ccc2c(ccc[n+]2CC(=O)c2ccccc2[N+](=O)[O-])c1.[Br-]", "note": "[Compound 3a, 6-Methyl-1-(2-(2-nitrophenyl)-2-oxoethyl)quinolin-1-ium bromide]", "MIC": 64}
{"molecule": "Cc1ccc2c(ccc[n+]2CC(=O)c2ccc(F)cc2)c1.[Br-]", "note": "[Compound 3b, 1-(2-(4-Fluorophenyl)-2-oxoethyl)-6-methylquinolin-1-ium bromide]", "MIC": 16}
{"molecule": "Cc1ccc2c(ccc[n+]2CC(=O)c2cc(C(F)(F)F)cc(C(F)(F)F)c2)c1.[Br-]", "note": "[Compound 3c, 1-(2-(3,5-Bis(trifluoromethyl)phenyl)-2-oxoethyl)-6-methylquinolin-1-ium bromide]", "MIC": 32}
